Experiments:
Format in all cases: cell-based
MLE-12 cells [1] = experiment: Mitochondrial iron ion accumulation (Mito-FerroGreen, flow cytometry) after RSL3; settings: MLE-12, 1 μM RSL3, 8 hours
Protocol: To confirm the inhibitory effect against mitochondrial iron ion accumulation in lung epithelial cells, 2×10^5 MLE-12 cells were dispensed into each well of a 12-well plate and cultured for 18 to 24 hours. Each well was treated with Example Compound 1 and ferrostatin-1, which were diluted so that their final concentration became 0.01, 0.1, 1, and 10 μM, and culture was performed for 15 minutes. Afterwards, the cells were treated so that the final concentration of RSL3 became 1 μM, and cultured for 8 hours. To confirm the inhibitory effect against mitochondrial iron ion accumulation, Mito-FerroGreen [DOJINDO; M489] was used. According to the manufacturer's experimental method, Mito-FerroGreen was diluted in the cell culture medium so that the final concentration became 1 μM, and the cells were treated therewith and allowed to react for 30 minutes to perform fluorescent staining. The MLE-12 cells fluorescently stained with Mito-FerroGreen were detached from the 12-well plate using 0.25% Trypsin-EDTA and transferred to a microtube, and the fluorescence (excitation/absorption 505 nm/535 nm) was measured using BD FACSLyric™ to calculate the rate of change compared to the control group.

MLE-12 cells [2] = experiment: Cytosolic ROS (CM-H2DCFDA) after RSL3; settings: MLE-12, 1 μM RSL3, 2 hours
Protocol: To confirm the protective effect against cytosolic reactive oxygen species in lung epithelial cells, 2×10^5 MLE-12 cells were dispensed into each well of a 12-well plate and cultured for 18 to 24 hours. Each well was treated with Example Compound 1 and ferrostatin-1, which were diluted so that their final concentration became 0.01, 0.1, 1, and 10 μM, and culture was performed for 15 minutes. Afterwards, the cells were treated so that the final concentration of RSL3 became 1 μM, and cultured for 2 hours. To confirm the inhibitory effect against cytosolic reactive oxygen species, CM-H2DCFDA (general oxidative stress indicator) [Invitrogen™; C6827] was used. According to the manufacturer's experimental method, CM-H2DCFDA was diluted in the cell culture medium so that the final concentration became 5 μM, and the cells were treated therewith and allowed to react for 30 minutes to perform fluorescent staining. The MLE-12 cells fluorescently stained with CM-H2DCFDA were detached from the 12-well plate using 0.25% Trypsin-EDTA and transferred to a microtube, and the fluorescence (excitation/absorption 492 to 495 nm/517 to 527 nm) was measured using BD FACSLyric™ to calculate the rate of change compared to the control group.

NIH/3T3 cells = experiment: Cytosolic lipid ROS after erastin, Experimental Example 3-3; settings: NIH/3T3, erastin 3 μM, 6 hr; tested 0.1, 1, 10 μM
Protocol: [The source words this procedure for another cell line and says it was used here with some conditions changed.] Experimental Example 3-1: To confirm the protective effect against cytosolic lipid reactive oxygen species in lung epithelial cells, 2×10^5 MLE-12 cells were dispensed into each well of a 12-well plate and cultured for 18 to 24 hours. Each well was treated with Example Compound 1 and ferrostatin-1, which were diluted so that their final concentration became 0.01, 0.1, 1, and 10 μM, and culture was performed for 15 minutes. Afterwards, the cells were treated so that the final concentration of RSL3 became 1 μM, and cultured for 2 hours. To confirm the inhibitory effect against cytosolic lipid reactive oxygen species, BODIPY™ 581/591 C11 (lipid peroxidation sensor) [Invitrogen™; D3861] was used. According to the manufacturer's experimental method, BODIPY™ 581/591 C11 was diluted in the cell culture medium so that the final concentration became 5 μM, and the cells were treated therewith and allowed to react for 30 minutes to perform fluorescent staining. The MLE-12 cells fluorescently stained with BODIPY™ 581/591 C11 were detached from the 12-well plate using 0.25% Trypsin-EDTA and transferred to a microtube, and the fluorescence (excitation/absorption 500 to 650 nm/510 to 665 nm) was measured using BD FACSLyric™ to calculate the rate of change compared to the control group. […]

NIH/3T3 = experiment: Cell death protection, LDH release after RSL3; settings: 24 hours
Protocol: (§1) To confirm the protective effect on cardiac cells, adrenal medulla cells, renal fibroblasts, retinal epithelial cells, lung epithelial cells, renal proximal tubule epithelial cells, hippocampal neurons, and fibroblasts, 4×10^3 to 1.2×10^4 cells of each cell type were dispensed into 96-well plates and cultured for 18 to 24 hours. Each well was treated with the example compound, which was diluted so that the final concentration became 0.001, 0.003, 0.01, 0.03, 0.1, 0.3, 1, 3, and 10 μM, and culture was performed for 15 to 20 minutes. […] To confirm the cell protecting effect of the example compounds, a cytotoxicity LDH assay kit [Dojindo; CK12] was used to measure the level of extracellular secretion of lactate dehydrogenase (LDH). Briefly, at the time point when the 24-hour treatment of each cell type with RSL3 ended, 70 μL of each supernatant from cell culture medium was taken and transferred to a new 96-well plate. After adding 70 μL/well (the same amount as the sample) of the assay buffer included in the kit, the resulting mixture was wrapped with foil and allowed to react at room temperature for 15 to 20 minutes. After observing the color change of the sample, 35 μL/well of a stop solution was added, and the absorbance value at 490 nm was measured using an iD3 spectrophotometer to calculate the EC50 value.
(§2) Table 3. Effect of protecting cardiac cells, adrenal medulla cells, renal fibroblasts, retinal epithelial cells, lung epithelial cells, renal proximal tubule epithelial cells, hippocampal neurons, and fibroblasts against cell death induced by RSL3.

H9C2 = experiment: Cell death protection, LDH release after RSL3; settings: H9C2, RSL3 0.5 μM, 24 hours
Protocol: as §1, §2

ARPE-19 = experiment: Cell death protection, LDH release after RSL3; settings: ARPE-19, RSL3 0.3 μM, 24 hours
Protocol: as §1, §2

MLE-12 = experiment: Cell death protection, LDH release after RSL3; settings: 24 hours
Protocol: as §1, §2

NRK-49F = experiment: Cell death protection, LDH release after RSL3; settings: RSL3 3 μM, 24 hours
Protocol: as §1, §2

HK-2 = experiment: Cell death protection, LDH release after RSL3; settings: HK-2, RSL3 0.3 μM, 24 hours
Protocol: as §1, §2

HT-22 = experiment: Cell death protection, LDH release after RSL3; settings: HT-22, RSL3 0.3 μM, 24 hours
Protocol: as §1, §2

PC-12 = experiment: Cell death protection, LDH release after RSL3; settings: PC-12, RSL3 0.3 μM, 24 hours
Protocol: as §1, §2

Q: Which results are given for `O=S1(=O)CCN(Cc2cc(NC3CCOCC3)c3[nH]c(-c4ccccc4)cc3c2)CC1` [Example 1, 5-[(1,1-dioxido-4-thiomorpholinyl)methyl]-2-phenyl-N-(tetrahydro-2H-pyran-4-yl)-1H-indole-7-amine]?
A: concentration at which mitochondrial iron ion accumulation was significantly decreased (MLE-12 cells [1]): 0.01 µM; concentration at which cytosolic reactive oxygen species were significantly decreased (MLE-12 cells [2]): 0.01 µM; concentration at which cytosolic lipid reactive oxygen species were decreased (NIH/3T3 cells): 0.1 µM; EC50 (NIH/3T3; Mus musculus, NIH3T3, NIH/3T3, RSL3 3 μM): 0.03 to 0.1 µM; EC50 (H9C2; Rattus norvegicus): 0.03 to 0.1 µM; EC50 (ARPE-19; Homo sapiens): ≤ 0.03 µM; EC50 (MLE-12; MLE12, MLE-12, RSL3 1 μM): ≤ 0.03 µM; EC50 (NRK-49F; Rattus norvegicus): ≤ 0.03 µM; EC50 (HK-2; Homo sapiens): ≤ 0.03 µM; EC50 (HT-22; Mus musculus): ≤ 0.03 µM; EC50 (PC-12; Rattus norvegicus): 0.03 to 0.1 µM

Q: What does the source list for `CCOC(=O)c1ccc(NC2CCCCC2)c(N)c1` [Fer-1, ferrostatin-1, reference compound]?
A: concentration at which mitochondrial iron ion accumulation was significantly decreased (MLE-12 cells [1]): 0.1 µM; concentration at which cytosolic reactive oxygen species were significantly decreased (MLE-12 cells [2]): 0.1 µM; concentration at which cytosolic lipid reactive oxygen species were decreased (NIH/3T3 cells): 10 µM; EC50 (NIH/3T3; NIH/3T3, RSL3 3 μM): 0.03 to 0.1 µM; EC50 (H9C2): 0.03 to 0.1 µM; EC50 (ARPE-19): 0.03 to 0.1 µM; EC50 (MLE-12; MLE-12, RSL3 1 μM): 0.03 to 0.1 µM; EC50 (NRK-49F): 0.03 to 0.1 µM; EC50 (HK-2): 0.03 to 0.1 µM; EC50 (HT-22): 0.03 to 0.1 µM; EC50 (PC-12): 0.03 to 0.1 µM

Source: patent US20240269145A1, “USE OF INDOLE COMPOUND AS INHIBITORS OF FERROPTOSIS” (MITOIMMUNE THERAPEUTICS INC., priority 2023, published 2024)
